The test concerns the target TRPML1 (Homo sapiens, UniProt Q9GZU1). The test can be described thus: Calcium flux in HEK293 overexpressing TRPML1 plasma membrane variant (FLIPR, Calcium 6 dye). The format is cell-based. The conditions noted are these: HEK293/TRPML1-PM clone A5 cells; 4-parameter logistic fit; read-out: TRPML1 calcium flux (FLIPR) dose response: EC50. The source says: Example B1. Calcium Flux in HEK293 Overexpressing TRPML1 Plasma Membrane Variant—Calcium 6 Dye
Cells: HEK293/TRPML1-PM clone A5, clonal cell line containing mutant TRPML1 (both N- and C-terminal dileucine targeting motifs deleted) that localizes to the plasma membrane
Plates: Perkin Elmer Viewplate cat. #6007460, black optically clear, tissue culture treated 384-well plate
Calcium dye: Molecular Devices FLIPR Calcium 6 Assay Kit, cat. #R8190 or Fluo-4 Direct from Thermo Fisher, cat. #F10471
Tips: Molecular Devices 384-well FLIPR Tetra black tips, cat. #9000-0764 Example B1.2 Method
HEK293/TRPML1-PM clone A5 cells were trypsinized from flasks, counted, then diluted in media to 15,000 cells per 25 μL, and seeded into a black, 384-well viewplate, and cultured overnight.
One vial of calcium 6 dye was diluted with 10 mL of assay buffer (HBSS+20 mM HEPES pH 7.4) and 25 μL of the dilution was added per well to the cells.
After incubating for 2 hours at 37° C., the plate was moved to the FLIPR in the read position.
The compounds were diluted in EMEM with 0.125% FBS to 5× concentration and loaded in a 384-well plate according to the desired plate map for the assay, including DMSO alone and carbachol controls, then the plate was moved to the FLIPR in the source 2 position.
A box of tips was placed in the source 1 position within the FLIPR to complete the assay set up.
Once the run was started, an initial baseline fluorescent measurement was performed for 10 seconds (470-495 nm excitation and 515-575 nm emission) prior to adding the compounds.
12.5 μL of 5× test compound, DMSO alone, or carbachol were added via the FLIPR and real-time fluorescence measurements were performed for an additional 170 seconds with 1 read per second.
The data was normalized to baseline by calculating maximum fluorescence minus minimum fluorescence and plotted as response (fold) over the baseline versus log ([…] concentration). The EC50 was determined using a 4-parameter logistic curve fit in Graphpad Prism 9.

Some results are limits rather than exact numbers.

This note sets out measurements from patent US20250340510A1, “Substituted Phenylbenzenesulfonamide Derivatives and Uses Thereof” (Nine Square Therapeutics Corporation, priority 2022, published 2025).

Chain of TRPML1 (Q9GZU1 17-572 limits assumed): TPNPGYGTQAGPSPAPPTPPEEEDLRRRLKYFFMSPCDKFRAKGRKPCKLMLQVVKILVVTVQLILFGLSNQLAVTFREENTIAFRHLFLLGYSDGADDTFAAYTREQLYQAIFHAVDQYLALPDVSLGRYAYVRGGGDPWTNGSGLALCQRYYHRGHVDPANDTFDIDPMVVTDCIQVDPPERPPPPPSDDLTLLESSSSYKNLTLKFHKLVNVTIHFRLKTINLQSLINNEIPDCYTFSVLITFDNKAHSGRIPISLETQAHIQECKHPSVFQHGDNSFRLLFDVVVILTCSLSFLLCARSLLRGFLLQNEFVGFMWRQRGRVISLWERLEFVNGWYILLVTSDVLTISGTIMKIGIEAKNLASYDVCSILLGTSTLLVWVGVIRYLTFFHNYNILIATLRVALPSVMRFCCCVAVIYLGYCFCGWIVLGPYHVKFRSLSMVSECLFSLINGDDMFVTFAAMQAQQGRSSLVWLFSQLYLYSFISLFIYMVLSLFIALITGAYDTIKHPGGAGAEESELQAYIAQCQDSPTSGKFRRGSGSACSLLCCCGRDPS

What is called EC50 is the concentration that produces a half-maximal response. `CN(c1cccc(C#N)c1NS(=O)(=O)c1ccc(S(=O)(=O)N(C)C)cc1)C1CCCCC1` [Compound 86, N1-(2-cyano-6-(cyclohexyl(methyl)amino)phenyl)-N4,N4-dimethylbenzene-1,4-disulfonamide]: the concentration giving a half-maximal response (EC50) is above 30000 nM. `CN(C)S(=O)(=O)c1ccc(S(=O)(=O)Nc2ccccc2N(C=O)Cc2cncs2)cc1` [Compound 61, N-(2-((4-(N,N-dimethylsulfamoyl)phenyl)sulfonamido)phenyl)-N-(thiazol-5-ylmethyl)formamide]: the EC50 was above 30000 nM. Turning to `CN(Cc1cn(C)cn1)c1ccccc1NS(=O)(=O)c1ccc(S(=O)(=O)N(C)C)cc1` [Compound 59, N1,N1-dimethyl-N4-(2-(methyl((1-methyl-1H-imidazol-4-yl)methyl)amino)phenyl)benzene-1,4-disulfonamide], the EC50 amounted to 2240 nM. The same measure for `CN(CC1CCOCC1)c1ccccc1NS(=O)(=O)c1ccc(S(=O)(=O)N(C)C)cc1` [Compound 11, N1,N1-dimethyl-N4-(2-(methyl((tetrahydro-2H-pyran-4-yl)methyl)amino)phenyl)benzene-1,4-disulfonamide]: 2100 nM; for `CN(CCC1COC1)c1ccccc1NS(=O)(=O)c1ccc(S(=O)(=O)N(C)C)cc1` [Compound 62, N1,N1-dimethyl-N4-(2-(methyl(2-(oxetan-3-yl)ethyl)amino)phenyl)benzene-1,4-disulfonamide]: above 30000 nM; for `CN(Cc1cccnc1)c1ccccc1NS(=O)(=O)c1ccc(S(=O)(=O)N(C)C)cc1` [Compound 57, N1,N1-dimethyl-N4-(2-(methyl(pyridin-3-ylmethyl)amino)phenyl)benzene-1,4-disulfonamide]: 4610 nM.

On to `CN(c1ccccc1NS(=O)(=O)c1ccc(S(=O)(=O)N(C)C)cc1)C1CCOCC1` [Compound 19, N1,N1-dimethyl-N4-(2-(methyl(tetrahydro-2H-pyran-4-yl)amino)phenyl)benzene-1,4-disulfonamide], for which the EC50 was found to be 2030 nM. Take `COCC1(C)CCC(N(C)c2ccccc2NS(=O)(=O)c2ccc(S(=O)(=O)N(C)C)cc2)CC1` (centres unmarked) [Compound 42, N1-(2-((4-(methoxymethyl)-4-methylcyclohexyl)(methyl)amino)phenyl)-N4,N4-dimethylbenzene-1,4-disulfonamide]: the 50% effective concentration (EC50) was determined as 820 nM. As for `Cc1cnccc1CN(C)c1ccccc1NS(=O)(=O)c1ccc(S(=O)(=O)N(C)C)cc1` [Compound 58, N1,N1-dimethyl-N4-(2-(methyl((3-methylpyridin-4-yl)methyl)amino)phenyl)benzene-1,4-disulfonamide], the concentration giving a half-maximal response (EC50) came to 6880 nM.

With `CN(c1ccc(Cl)cc1NS(=O)(=O)c1ccc(S(=O)(=O)N(C)C)cc1)C1CCCCC1` [Compound 1, N1-(5-chloro-2-(cyclohexyl(methyl)amino)phenyl)-N4,N4-dimethylbenzene-1,4-disulfonamide], the EC50 is 1240 nM. The result for `CC(C)n1cnc(CN(C)c2ccccc2NS(=O)(=O)c2ccc(S(=O)(=O)N(C)C)cc2)c1` [Compound 31, N1-(2-(((1-isopropyl-1H-imidazol-4-yl)methyl)(methyl)amino)phenyl)-N4,N4-dimethylbenzene-1,4-disulfonamide] reads 8980 nM; that for `CN(c1ccccc1NS(=O)(=O)c1ccc(S(=O)(=O)N(C)C)cc1)C1CCC1` [Compound 37, N1-(2-(cyclobutyl(methyl)amino)phenyl)-N4,N4-dimethylbenzene-1,4-disulfonamide], 750 nM. The same measure for `CN(Cc1ccc(F)cn1)c1ccccc1NS(=O)(=O)c1ccc(S(=O)(=O)N(C)C)cc1` [Compound 43, N1-(2-(((5-fluoropyridin-2-yl)methyl)(methyl)amino)phenyl)-N4,N4-dimethylbenzene-1,4-disulfonamide]: 880 nM; for `Cc1ncc(F)cc1CN(C)c1ccccc1NS(=O)(=O)c1ccc(S(=O)(=O)N(C)C)cc1` [Compound 75, N1-(2-(((5-fluoro-2-methylpyridin-3-yl)methyl)(methyl)amino)phenyl)-N4,N4-dimethylbenzene-1,4-disulfonamide]: 2140 nM; for `Cc1cccc(N(C)C2CCCCC2)c1NS(=O)(=O)c1ccc(S(=O)(=O)N(C)C)cc1` [Compound 36, N1-(2-(cyclohexyl(methyl)amino)-6-methylphenyl)-N4,N4-dimethylbenzene-1,4-disulfonamide]: 2180 nM.

For the molecule `CN(CC1CCCO1)c1ccccc1NS(=O)(=O)c1ccc(S(=O)(=O)N(C)C)cc1` (centres unmarked) [Compound 107, N1,N1-dimethyl-N4-(2-(methyl((tetrahydrofuran-2-yl)methyl)amino)phenyl)benzene-1,4-disulfonamide], the concentration giving a half-maximal response (EC50) was found to be 1390 nM. For `CN(c1ccccc1)c1ccccc1NS(=O)(=O)c1ccc(S(=O)(=O)N(C)C)cc1` [Compound 27, N1,N1-dimethyl-N4-(2-(methyl(phenyl)amino)phenyl)benzene-1,4-disulfonamide], the EC50 is above 10000 nM. In the case of `CN(c1ccccc1NS(=O)(=O)c1ccc(S(=O)(=O)N(C)C)cc1)C1CCC(F)(F)CC1` [Compound 41, N1-(2-((4,4-difluorocyclohexyl) (methyl)amino)phenyl)-N4,N4-dimethylbenzene-1,4-disulfonamide], the EC50 was 270 nM. Regarding `CN(Cc1cnsc1)c1ccccc1NS(=O)(=O)c1ccc(S(=O)(=O)N(C)C)cc1` [Compound 101, N1-(2-((isothiazol-4-ylmethyl)(methyl)amino)phenyl)-N4,N4-dimethylbenzene-1,4-disulfonamide], the half-maximal effective concentration (EC50) is 3020 nM. The same measure for `CN(c1cccc(F)c1NS(=O)(=O)c1ccc(S(=O)(=O)N(C)C)cc1)C1CCCCC1` [Compound 3, N1-(2-(cyclohexyl(methyl)amino)-6-fluorophenyl)-N4,N4-dimethylbenzene-1,4-disulfonamide]: 4760 nM. Take `CN1CCC(N(C)c2ccccc2NS(=O)(=O)c2ccc(S(=O)(=O)N(C)C)cc2)CC1` [Compound 21, N1,N1-dimethyl-N4-(2-(methyl(1-methylpiperidin-4-yl)amino)phenyl)benzene-1,4-disulfonamide]: the EC50 was above 10000 nM.

On to `CN(c1cc(F)ccc1NS(=O)(=O)c1ccc(S(=O)(=O)N(C)C)cc1)C1CCCCC1` [Compound 4, N1-(2-(cyclohexyl(methyl)amino)-4-fluorophenyl)-N4,N4-dimethylbenzene-1,4-disulfonamide], for which the EC50 came out at 2210 nM.

For the molecule `Cc1ncsc1CN(C)c1ccccc1NS(=O)(=O)c1ccc(S(=O)(=O)N(C)C)cc1` [Compound 51, N1,N1-dimethyl-N4-(2-(methyl((4-methylthiazol-5-yl)methyl)amino)phenyl)benzene-1,4-disulfonamide], the 50% effective concentration (EC50) is 3050 nM. For `CCOCCCN(C)c1ccccc1NS(=O)(=O)c1ccc(S(=O)(=O)N(C)C)cc1` [Compound 113, N1-(2-((3-ethoxypropyl)(methyl)amino)phenyl)-N4,N4-dimethylbenzene-1,4-disulfonamide], the EC50 is above 10000 nM.

For `COCCCCN(C)c1ccccc1NS(=O)(=O)c1ccc(S(=O)(=O)N(C)C)cc1` [Compound 33, N1-(2-((4-methoxybutyl)(methyl)amino)phenyl)-N4,N4-dimethylbenzene-1,4-disulfonamide], the half-maximal effective concentration (EC50) is 2740 nM. The same measure for `CC(C)CN(C)c1ccccc1NS(=O)(=O)c1ccc(S(=O)(=O)N(C)C)cc1` [Compound 7, N1-(2-(isobutyl(methyl)amino)phenyl)-N4,N4-dimethylbenzene-1,4-disulfonamide]: 510 nM.
